In patent US7084172B2, “Bioprecursors for percutaneous application” (Pierre Fabre Dermo-Cosmetique, priority 2001, dated 2006):

Test system: HaCaT keratinocyte line
Assay: Enzymatic hydrolysis by esterase activity in HaCaT keratinocytes
Format: in vitro ADME, human
Protocol: 150 μl of a 1 mM solution in dimethyl sulphoxide (DMSO) are placed in a dish containing an HaCaT keratinocyte line (75 cm^2) in 15 ml of serum alone. The cells are placed in the incubator at 37° C. for 24 hours. The medium is extracted with 15 ml of ethyl acetate. The organic phase is then isolated and evaporated off.
The cells are extracted by sonication into 2×15 ml of an ice-cold mixture consisting of chloroform and methanol (1:2.5). After centrifugation, the organic phase collected is evaporated to dryness. For each test, a control is performed on a dish containing cells and a substrate-free medium to take account of a possible chemical degradation of the substrate.
The presence of esterase activity in the human keratinocytes is checked by means of a substrate, 4-methylumbelliferyl palmitate. The precursor according to the invention, used as pseudosubstrate, is the tocopheryl retinyl succinate prepared according to example 1.

Structure (SMILES) | Degree of hydrolysis in 24 hours of incubation (150 μl of 1 mM DMSO solution in 15 ml serum, HaCaT keratinocytes, 37° C., 24 hours) | Degree of hydrolysis in 24 hours of incubation (human, 24 h, 10 µM)
CCCCCCCCCCCCCCCC(=O)Oc1ccc2c(C)cc(=O)oc2c1 [4-Methylumbelliferyl palmitate, 4-methylumbelliferyl palmitate] | 2.7% ± 2% | –
CC1=C(/C=C/C(C)=C/C=C/C(C)=C/COC(=O)CCC(=O)Oc2c(C)c(C)c3c(c2C)CCC(C)(CCCC(C)CCCC(C)CC(C)C)O3)C(C)(C)CCC1 (centres unmarked) [Tocopheryl retinyl succinate, O-(4-Oxo-4-{[2,5,7,8-tetramethyl-2-(4,8,12-trimethyltridecyl)-3,4-dihydro-2H-chromen-6-yl]oxy}butanoyl)retinol] | – | 5% ± 3%
